Assays:
[1] = test system: primary CLL cells; test: Cytotoxicity in primary CLL cells (Annexin V / propidium iodide flow cytometry); format: cell-based; details: primary CLL cells, 24 hrs, OSU-2S at 8 μM
Procedure: Antitumor and other effects of OSU-2S were also evaluated in Chronic Lymphoid Leukemia cells. OSU-2S cytotoxicity in primary CLL cells is measured at 24 hrs by staining for Annexin V and Propidium Iodide using Flow cytometer. The number of live cells (stained negative for both the stains) were normalized to untreated control. Fludarabine metabolite (2-Fara) was used as a control.
The effect of OSU-2S was evaluated in 3 different CLL cell lines (WROTH<THOU, and RAHUE) over a 24 hour period, as shown in FIG. 9. Time dependent OSU-2S cytotoxicity in primary CLL cells was measured by treating the cells with OSU-2S (8 μM) for indicated period of time and washed and cultured in the fresh media for 24 hr. The number of live cells stained negative for Annexin V and Propidium Iodide were measured at 24 hrs by using Flowcytometer and normalized to untreated control.
CD37 activation and OSU-2S produced enhanced cytotoxicity in CLL cells, as detected by flow cytometer at 24 hr. in CLL cells treated with CD37 antibody and cross linker or OSU-2S 8 μM or with both are stained for Annexin V and propidium iodide at 24 hr.

[2] = test system: CLL cells; test: Western blot analysis in CLL cells (PARP, caspase 3, caspase 9); format: cell-based
Description: Western blot analysis as carried out to further observe the effects of OSU-2S in CLL cells. […] OSU-2S in CLL activates caspase, as evidenced by cleavage of poly (ADP-ribose) polymerase (PARP). Jurkat cell with or without UV irradiation were included as controls. […] OSU-2S was also shown to activate caspase 3 in CLL cells. […] Finally, OSU-2S activates caspase 9 in CLL.

[3] = target: T1, S1P1 receptor-overexpressing Huh7 cells (Homo sapiens, UniProt P21453); test: Immunocytochemical analysis of S1P1 receptor internalization; format: cell-based; details: immunocytochemistry
T1 construct: expressed in transfected cells
Procedure: Immunocytochemistry. Immunocytochemical analysis of S1P1 internalization and PKCδ nuclear translocation were performed as described. […] Briefly, treated cells were washed, fixed with 4% paraformaldehyde, and permeabilized with 0.1% Triton X-100. After blocking with 2% FBS, cells were incubated with rabbit anti-S1P1 or rabbit anti-PKCδ antibodies (1:200 dilution, 4° C., 24 h), followed by Alexa Fluor 488-conjugated goat anti-rabbit IgG (room temperature, 1 h). Nuclei were counterstained with a 4,6-diamidino-2-phenylindole (DAPI)-containing mounting medium (Vector Laboratories, Burlingame, Calif.).

[4] = test system: lymphocytes in peripheral blood; test: In vivo evaluation of T-lymphocyte homing; details: CD2F1 mice, i.p., 6 h
Procedure: In vivo evaluation of T-lymphocyte homing. […] Six hours later, animals were sacrificed, and peripheral blood mononuclear cells were prepared as described. Dragun et al., Kidney Int 65, 1076-1083 (2004). Cells were stained with FITC-labeled rat anti-mouse CD3 molecular complex and PE-labeled rat anti-mouse CD45RA (4° C., in darkness, 30 min), and analyzed by flow cytometry.

[5] = test system: Huh7 cells; test: MTT cell viability assay, Huh7; format: cell-based
Procedure: (§1) Cell lines, culture and reagents. The HCC cell lines Hep3B, PLC5 and Huh7, as well as primary nonmalignant human hepatocytes were used in this study. Cancer cells were cultured in Dulbecco's Modified Eagle's medium (DMEM) supplemented with 10% fetal bovine serum (FBS). Hepatocytes were maintained in defined Hepatocyte Culture Medium. […] Various polyclonal and monoclonal antibodies were used for western blotting, immunocytochemical, and flow cytometric analyses.
(§2) Cell viability assay. Cell viability was assessed by 3-(4,5-dimethylthiazol-2-yl)-2,5-diphenyl-2H-tetrazolium bromide (MTT) assays in six replicates. Cells were seeded (4,000 cells/well; 96-well plate) for 24 h and treated with test agents in 5% FBS-supplemented DMEM. After treatment, cells were incubated in medium containing 0.5 mg/ml MTT (37° C., 2 h). Reduced MTT was dissolved in DMSO (200 μL/well) and absorbances measured at 570 nm.

[6] = test system: Hep3B cells; test: MTT cell viability assay, Hep3B; format: cell-based; details: Homo sapiens, 24 h of treatment
Procedure: as §1, §2

[7] = test system: PLC5 cells; test: MTT cell viability assay, PLC5; format: cell-based; details: 24 h of treatment
Procedure: as §1, §2

[8] = test system: normal human hepatocytes; test: MTT cell viability assay, normal hepatocytes; format: cell-based; details: 24 h
Procedure: as §1, §2

[9] = target: T1, S1P1 receptor-overexpressing Huh7 cells; test: Cell viability in stable S1P1 receptor transfectants; format: cell-based; details: two stable S1P1 clones vs wild-type Huh7
Procedure: as §2
Overexpression of S1P1 Receptors. Huh7 or Hep3B cells were transfected with plasmids encoding S1PR1, Flag-tagged GST-π or hemagglutinin (HA)-tagged, CA-Akt. The corresponding empty vectors were used as controls. Stable clones were selected over 3 weeks by geneticin, and the expression of cloned proteins was confirmed by Western blotting.

[10] = test system: PTEN, p53, Mcl-1 in Huh7 cells; test: Western blot of signaling markers in drug-treated Huh7 cells; format: cell-based; details: 24 h
Procedure: Immunoblotting. Immunoblotting of biomarkers in cell lysates and tumor tissue homogenates was carried out according to a published procedure. Hung et al., Cancer Res., 68, 1204-1212 (2008).

[11] = test system: subcutaneous Hep3B tumors; test: Ectopic (subcutaneous) Hep3B xenograft tumor model; format: in vivo, athymic nude mice
Procedure: (§3) Xenograft tumor models. Ectopic tumors were established in athymic nude mice by subcutaneous injection of 1×10^6 Hep3B cells in a total volume of 0.1 ml of serum-free medium containing 50% Matrigel. Mice with established tumors were randomized to five groups (n=8) that received daily i.p. injections of OSU-2S or FTY720 at 5 or 10 mg/kg, or the vehicle. Tumor burdens were determined weekly using calipers (volume=width^2×length×0.52). Body weights were measured weekly. At the study endpoint, tumors were harvested, snap-frozen and stored at −80° C. for biomarker analysis. Blood and tissues were collected for evaluation of complete blood counts, serum chemistry and histopathology.

[12] = test system: orthotopic Hep3B-luc tumors; test: Orthotopic Hep3B-luc xenograft tumor model; format: in vivo, athymic nude mice; design: dose or concentration left out as unconfirmed; details: by three weeks
Description: Orthotopic tumors were established by direct intrahepatic injection of luciferase-expressing Hep3B (Hep3B-luc) cells as described. Omar et al., Mol Pharmacol, 76, 957-968 (2009). The establishment and growth of tumors were monitored by bioluminescent imaging using the IVIS™ imaging system (Xenogen, Alameda, Calif.). […] All animal use described in this manuscript was done in accordance with protocols approved by The Ohio State University Institutional Animal Care and Use Committee.

[13] = Toxicity evaluation in tumor-bearing mice (body weight, blood counts, histopathology); format: in vivo, athymic nude mice; details: for mice with abdominal adhesions with varying amounts of peritonitis: of six mice per group examined histologically
Procedure: as §3
Orthotopic tumors were established by direct intrahepatic injection of luciferase-expressing Hep3B (Hep3B-luc) cells as described. Omar et al., Mol Pharmacol, 76, 957-968 (2009). The establishment and growth of tumors were monitored by bioluminescent imaging using the IVIS™ imaging system (Xenogen, Alameda, Calif.). Two weeks after tumor cell injection, animals with established tumors were randomized to three groups (n=3) that received daily i.p. injections of FTY720 or OSU-2S at 5 mg/kg, or vehicle for 42 days and were imaged weekly. All animal use described in this manuscript was done in accordance with protocols approved by The Ohio State University Institutional Animal Care and Use Committee.

[14] = target: T2, PP2A (Serine/Threonine Phosphatase 2A) (Homo sapiens, UniProt P67775); test: PP2A functional enzymatic assay (malachite green) in primary CLL cells; format: cell-based; details: 24 hrs, OSU-2S 8 μM, untreated about 0.07
T2 construct: endogenous in cells; host or cells: primary CLL cells; Ramos cells
Procedure: The ability of OSU-2S to induce PP2A (Serine/Threonine Phosphatase 2A) activity in primary CLL cells was measured at 24 hrs by a functional enzymatic assay. Lysates made from OSU-2S 8 μM treated cells are used to immunoprecipitate PP2Ac which was then used as an enzyme to cleave the specific phosphor-peptide substrate in the functional assay. The cleaved free phosphates were measured by adding malachite green detection solutions and measuring the absorbance at A650 nm. Ramos cells were also included, and FTY720 was used as the control.

[15] = test system: SphK2 siRNA-transfected Huh7 cells; test: Cell viability after siRNA-mediated knockdown of SphK2; format: cell-based; details: SphK2 siRNA vs scrambled
Procedure: as §2
Small interfering (si)RNA- or short hairpin (sh)RNA-mediated knockdown. PLC5 and Huh7 cells were transfected with the following siRNA duplexes or shRNA plasmids according to the manufacturer's protocol for the knockdown of target genes: siRNA: glutathione S-transferase (GST)-π and sphingosine kinase 2 (SphK2); shRNA constructs: pKD-PKCδ-v2. Stable clones were isolated from Huh7 cells transfected with shRNA plasmids were further subjected to stable clone isolation by geneticin. Immunoblotting was performed to confirm the knockdowns.

T1 sequence (P21453 whole entry): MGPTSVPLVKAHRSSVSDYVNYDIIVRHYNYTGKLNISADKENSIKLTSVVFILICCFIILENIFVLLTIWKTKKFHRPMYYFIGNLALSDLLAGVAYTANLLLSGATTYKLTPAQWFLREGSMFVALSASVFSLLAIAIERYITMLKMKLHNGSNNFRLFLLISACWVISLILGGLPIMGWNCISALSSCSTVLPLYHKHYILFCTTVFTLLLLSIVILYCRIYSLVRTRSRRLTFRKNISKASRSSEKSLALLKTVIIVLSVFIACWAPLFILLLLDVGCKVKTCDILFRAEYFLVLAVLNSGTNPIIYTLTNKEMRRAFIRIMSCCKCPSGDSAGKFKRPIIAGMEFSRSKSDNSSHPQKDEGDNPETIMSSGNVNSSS
T2 sequence (P67775 whole entry): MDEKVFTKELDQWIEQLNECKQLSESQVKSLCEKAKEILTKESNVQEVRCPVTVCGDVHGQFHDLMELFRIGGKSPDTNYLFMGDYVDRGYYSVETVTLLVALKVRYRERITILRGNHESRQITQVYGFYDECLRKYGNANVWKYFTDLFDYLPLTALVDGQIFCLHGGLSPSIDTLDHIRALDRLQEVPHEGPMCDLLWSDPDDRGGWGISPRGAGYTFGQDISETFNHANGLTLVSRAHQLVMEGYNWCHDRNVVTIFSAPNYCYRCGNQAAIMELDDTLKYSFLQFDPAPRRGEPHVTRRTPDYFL

**Q.** What does the source list for `Nc1nc(F)nc2c1ncn2[C@@H]1O[C@H](CO)[C@@H](O)[C@@H]1O` [2-Fara, reference compound]?
**A.** growth (live cells normalized to untreated control) [1]: 100%; caspase 3 activation ([2]; 24 and 48 hours, products at about 16-18 kD): caspase 3 cleaved products; caspase 9 activation ([2]; products at about 30-34 kD): caspase 9 cleaved products

**Q.** What does the source list for `CCCCCCCCc1ccc(CCC(N)(CO)CO)cc1` [FTY720]?
**A.** S1P1 receptor internalization and clustering in the cytoplasm [3]: profound effect; drop in the number of T lymphocytes in peripheral blood ([4]; 1 mg/kg): ≥ 75%; changes in circulating B lymphocytes [4]: no comparable changes; IC50 ([5]; Homo sapiens, Huh-7, 24 h of treatment, MTT): 4.8 µM; IC50 [6]: 4.2 µM; IC50 [7]: 6.2 µM; sensitivity of normal human hepatocytes relative to malignant cells [8]: resistant; effect of S1P1 receptor overexpression on antiproliferative activity [9]: partially protected; effect on expression levels of PTEN, p53, or Mcl-1 [10]: neither OSU-2S nor FTY720 had an appreciable effect; ectopic Hep3B tumor growth vs vehicle control ([11]; 5 mg/kg, i.p. once daily, P<0.001): completely suppressed; dose dependency of tumor-suppressive response ([11]; 5 and 10 mg/kg i.p. daily): no dose dependency; intratumoral biomarkers of drug activity ([11]; Hep3B tumor tissue homogenates, Western blot): PKCδ and caspase-3 were activated; orthotopic tumor burden (bioluminescence) [12]: suppressed mean tumor burden to the original level; mice with abdominal adhesions with varying amounts of peritonitis ([13]; 5 mg/kg): three; mice with abdominal adhesions with varying amounts of peritonitis ([13]; 10 mg/kg): all; lymphocyte levels ([13]; ectopic tumor-bearing mice at study endpoint): minimal to mild lymphopenia; overt toxicity and body weight ([13]; ectopic tumor-bearing mice, daily i.p. 5 or 10 mg/kg): no overt signs of toxicity and no loss of body weight; tolerability (stable body weights) ([13]; orthotopic tumor-bearing mice, daily i.p., 42 days): well tolerated; PP2A activity, absorbance at A650 nm [14]: about 0.20; effect of SphK2 knockdown on antiproliferative activity (sensitizing effect) [15]: significantly increased

**Q.** With `CCCCCCCCc1ccc(CCC(N)(CO)COP(=O)(O)O)cc1` (stereo not drawn) [p-FTY720] as the compound, how does the “suppression of HCC cell viability by phosphate derivatives” value ([5]; 24 h, MTT (FIG. 6A)) read?
**A.** lacks in vitro efficacy

From patent US8309768B2, “FTY720-derived anticancer agents” (The Ohio State University Research Foundation, priority 2010, dated 2012)
